Data reported in patent US7456225B1, “Liver protection compounds of the cyclohexenone type from Antrodia camphorata” (Golden Biotechnology Corporation, priority 2007, dated 2008).
Marks after values point to notes of the source that are not given here.

System: CCl4-induced liver fibrosis in rats
Experiment: Histological evaluation of liver fibrosis (Masson's trichrome, 0-4 scale)
Format: in vivo, Sprague-Dawley (SD) rats
Details: for Liver fibrosis score: 0-4 scale, CCl4-treated rats, 8 weeks; for Liver fibrosis +, counts of pathological rats: level 1, portal fibrosis without septa; for Liver fibrosis ++, counts of pathological rats: level 2, incomplete septa; for Liver fibrosis +++, counts of pathological rats: level 3, intact septal fibrosis and bridging; for Liver fibrosis ++++, counts of pathological rats: level 4, complete thick septa, definite cirrhosis
Description: The animal model was performed with five-week-old Sprague-Dawley (SD) rats purchased from BioLasco Taiwan Co., Ltd. Healthy rats weighing 220-270 g were chosen for experiment after observing for 2 weeks in the laboratory animal room. The rats were randomly divided into 6 groups (12 rats/group): normal (gp. A); control groups including model control (gp. B) and positive control (gp. C, animals receiving silymarin); treatment groups including animals receiving 300 mg/kg of cyclohexenone (gp. D), 1000 mg/kg of cyclohexenone (gp. E), and 3000 mg/kg of cyclohexenone (gp. F), as indicated in Table 1. Only normal group was not poisoned with CCl4. The body weights were recorded to calculate the dosage. […] It helps to remove toxins from liver cells by either neutralizing the toxicity of toxic compounds or competing with the binding sites in liver. It is a potent antioxidant, protects the liver from free radicals. It has been widely studied for treating various types of liver injury in animals and clinical trials. The beneficial effects on liver protection have made silymarin a good medicine for liver diseases and a drug in positive control group for the animal model of liver injury.
Rats in normal group (group A) were fed with corn oil (Sigma chemical co.) by means of stomach tubes. Carbon tetrachloride (Shimakyu, Osaka, Japan) was administered to groups B to F via stomach tubes twice weekly (every Tuesday and Thursday afternoon) for 8 weeks, at a dose of 2 ml/kg of body weight, diluted with corn oil. Silymarin was prepared with saline in an amount of 200 mg/kg of body weight and was fed to rats of group C via a stomach tube. Cyclohexenone prepared from example 1 was mixed with saline, and fed in the amounts of 300 mg/kg, 1000 mg/kg and 3000 mg/kg of body weight to rats of group D to F via stomach tubes. The total feeding volume was estimated in the ratio of 10 ml/kg of body weight to groups C to F five days a week (every morning) for 8 weeks. The body weights of rats and the amounts of food intake in rats for each group were shown in FIG. 1 and FIG. 2, respectively.
The pathological changes of the liver surface were examined with naked eyes when the liver was taken out from rats, and then tissue sections were made. Half of each liver lobe was stored at −80° C. for antioxidant enzyme assay to follow up. The rest of liver tissues were fixed in 10% formalin for one week, embedded in paraffin cut into 2 μm sections, and stained with Hematoxyline-eosin (H&E) to visualize the lipid deposition, inflammation, cell necrosis and fibrosis, or stained with Masson's trichromic solution to visualize extracellular matrix and collagen fibers for liver fibrosis development. The pathological changes of liver injury were evaluated under light microscope (Opticphot-2, Nikon, Tokyo, Japan) after stained with the abovementioned solution.
Liver fibrosis was evaluated semiquantitatively according to the scoring methods from Gabriele et al. (Gabriele, B. 1997. Silymarin retards collagen accumulation in early and advanced biliary fibrosis secondary to complete bile duct obliteration in rats. Hepatology 26: 643-649) and Wang et al. (Wang, G. S., Eriksson, L. C., Xia, L., Olsson, J. and Stal, P. 1999. Dietary iron overload inhibits carbon tetrachloride-induced promotion in chemical hepatocarcinogenesis: effects on cell proliferation, apoptosis, and antioxidation. J. Hepatol. 30(4):689-98.). Fibrosis was staged on a 0-4 scale: level 0, no fibrosis, normal liver tissue; level 1, proliferation of collagen, portal fibrosis without septa (proliferation of radiating fiber in central vein or periportal region); level 2, incomplete septa between central vein and periportal region (septa without bridging); level 3, intact septal fibrosis and bridging, many nodules in liver, the septa is thin; and level 4, complete thick septa, definite cirrhosis. The results are shown in FIG. 3 to FIG. 5, and Table 3.

COC1=C(OC)C(O)C(C/C=C(\C)CC/C=C(\C)CCC=C(C)C)C(C)C1=O (centres unmarked) [Cyclohexenone from Antrodia camphorata, 4-hydroxy-2,3-dimethoxy-6-methyl-5(3,7,11-trimethyl-dodeca-2,6,10-trienyl)-cyclohex-2-enone]
Liver fibrosis score (cyclohexenone 300 mg/kg): 1.8*^a
Liver fibrosis score (cyclohexenone 300 mg/kg, listed as cyclohexenone from Antrodia camphorata): 1.8
Liver fibrosis score (cyclohexenone 1000 mg/kg): 2.0*^a
Liver fibrosis score (cyclohexenone 3000 mg/kg): 2.5*
Liver fibrosis −, counts of pathological rats (level 0, no fibrosis, cyclohexenone 1000 mg/kg): 2
Liver fibrosis +, counts of pathological rats (cyclohexenone 300 mg/kg): 6
Liver fibrosis +, counts of pathological rats (cyclohexenone 1000 mg/kg): 1
Liver fibrosis +, counts of pathological rats (cyclohexenone 3000 mg/kg): 2
Liver fibrosis ++, counts of pathological rats (cyclohexenone 300 mg/kg): 4
Liver fibrosis ++, counts of pathological rats (cyclohexenone 1000 mg/kg): 4
Liver fibrosis ++, counts of pathological rats (cyclohexenone 3000 mg/kg): 4
Liver fibrosis +++, counts of pathological rats (cyclohexenone 300 mg/kg): 1
Liver fibrosis +++, counts of pathological rats (cyclohexenone 1000 mg/kg): 3
Liver fibrosis +++, counts of pathological rats (cyclohexenone 3000 mg/kg): 3
Liver fibrosis ++++, counts of pathological rats (cyclohexenone 300 mg/kg): 1
Liver fibrosis ++++, counts of pathological rats (cyclohexenone 1000 mg/kg): 1
Liver fibrosis ++++, counts of pathological rats (cyclohexenone 3000 mg/kg): 2
